Laboratory results taken from US20070259965A1, “Acyclic 1,3-Diamine And Uses Therefor” (SmithKline Beecham Corporation, priority 2004, published 2007).

Assays:
TRPV4 channel receptor = molecular target: T1, TRPV4 channel receptor (Homo sapiens, UniProt Q9HBA0); assay: FLIPR assay using TRPV4 expressing HEK cells; assay type: cell-based; settings: FLIPR method; pEC50 = −log10(EC50 μM)
T1 construct: expressed in transfected cells; host or cells: HEK cells
From the text: Other techniques used to measure TRPV4 channel receptor activation in chondrocytes include, but are not limited to: FLIPR assay, measuring a compound's capability to reduce the amount of ADAMTSs produced and/or released in response to a catabolic stimulus by a cell comprising a TRPV4 channel receptor; measuring a compound's capability to reduce the amount of MMPs produced and/or released in response to a catabolic stimulus by a cell comprising a TRPV4 channel receptor; measuring a compound's capability to effect the amount of nitric oxide (NO) produced in response to a catabolic stimulus by a cell comprising a TRPV4 channel receptor; and measuring a compound's capability to attenuate the inhibition of matrix synthesis in response to a catabolic stimulus by a cell comprising a TRPV4 channel receptor .
All exemplary compounds of the present invention were assessed using at least one of the biological assays presented above. Compounds presented in the Examples had pEC50 values between about 4.5 to about 7.0 as measured by Flex Station in using bovine articular cartilage and EC50 values of about 0.1 μM to about 30 μM as measured by FLIPR assay using TRPV4 expressing HEK cells.

TRPV4 channel receptors = molecular target: T2, TRPV4 channel receptors (Bos taurus, UniProt A0A8F4X677); assay: Ca2+ influx by Fura-2 fluorescence on a FlexStation in bovine articular chondrocytes; assay type: cell-based; settings: Fura-2, FlexStation
T2 construct: obtained using this method in bovine articular chondrocytes; endogenous in cells; host or cells: bovine articular chondrocytes (primary)
T2 sequence (A0A8F4X677 1-871): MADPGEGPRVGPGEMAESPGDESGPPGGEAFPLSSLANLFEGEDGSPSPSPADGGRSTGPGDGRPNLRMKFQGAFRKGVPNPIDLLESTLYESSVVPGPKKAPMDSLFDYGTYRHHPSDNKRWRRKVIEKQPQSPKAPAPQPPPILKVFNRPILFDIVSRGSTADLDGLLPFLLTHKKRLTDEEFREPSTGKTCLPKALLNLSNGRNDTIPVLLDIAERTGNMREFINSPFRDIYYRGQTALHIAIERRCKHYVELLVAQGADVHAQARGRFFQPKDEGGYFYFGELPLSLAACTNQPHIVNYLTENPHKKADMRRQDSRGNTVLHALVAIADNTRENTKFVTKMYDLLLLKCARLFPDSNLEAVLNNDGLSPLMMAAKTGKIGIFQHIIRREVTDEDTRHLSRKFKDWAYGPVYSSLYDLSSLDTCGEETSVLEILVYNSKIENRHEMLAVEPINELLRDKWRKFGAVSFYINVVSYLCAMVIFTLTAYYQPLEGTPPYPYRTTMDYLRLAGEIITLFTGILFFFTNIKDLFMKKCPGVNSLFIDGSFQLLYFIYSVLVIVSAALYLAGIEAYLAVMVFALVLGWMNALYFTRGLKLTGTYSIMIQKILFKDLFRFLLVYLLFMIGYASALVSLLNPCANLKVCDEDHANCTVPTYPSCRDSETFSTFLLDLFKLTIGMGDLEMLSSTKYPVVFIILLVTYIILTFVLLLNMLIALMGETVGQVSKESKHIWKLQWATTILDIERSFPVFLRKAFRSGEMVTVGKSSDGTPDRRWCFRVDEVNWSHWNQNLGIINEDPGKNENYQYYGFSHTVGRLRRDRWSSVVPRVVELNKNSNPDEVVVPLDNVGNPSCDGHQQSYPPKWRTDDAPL
From the text: Ca^2+influx mediated through TRPV4 channel receptors can be measured using articular chondrocytes from such species as, but not limited to, human, rat, canine, rabbit, monkey, and bovine, using standard techniques in the art such as, but not limited to, Fura-2 (Invitrogen/Molecular Probes, Eugene, Oreg.) fluorescence using a FlexStation (manufactured by Molecular Devices, Sunnyvale, Calif.). Table 1 lists biological data for several representative compounds obtained using this method in bovine articular chondrocytes.

T1 sequence (Q9HBA0 whole entry): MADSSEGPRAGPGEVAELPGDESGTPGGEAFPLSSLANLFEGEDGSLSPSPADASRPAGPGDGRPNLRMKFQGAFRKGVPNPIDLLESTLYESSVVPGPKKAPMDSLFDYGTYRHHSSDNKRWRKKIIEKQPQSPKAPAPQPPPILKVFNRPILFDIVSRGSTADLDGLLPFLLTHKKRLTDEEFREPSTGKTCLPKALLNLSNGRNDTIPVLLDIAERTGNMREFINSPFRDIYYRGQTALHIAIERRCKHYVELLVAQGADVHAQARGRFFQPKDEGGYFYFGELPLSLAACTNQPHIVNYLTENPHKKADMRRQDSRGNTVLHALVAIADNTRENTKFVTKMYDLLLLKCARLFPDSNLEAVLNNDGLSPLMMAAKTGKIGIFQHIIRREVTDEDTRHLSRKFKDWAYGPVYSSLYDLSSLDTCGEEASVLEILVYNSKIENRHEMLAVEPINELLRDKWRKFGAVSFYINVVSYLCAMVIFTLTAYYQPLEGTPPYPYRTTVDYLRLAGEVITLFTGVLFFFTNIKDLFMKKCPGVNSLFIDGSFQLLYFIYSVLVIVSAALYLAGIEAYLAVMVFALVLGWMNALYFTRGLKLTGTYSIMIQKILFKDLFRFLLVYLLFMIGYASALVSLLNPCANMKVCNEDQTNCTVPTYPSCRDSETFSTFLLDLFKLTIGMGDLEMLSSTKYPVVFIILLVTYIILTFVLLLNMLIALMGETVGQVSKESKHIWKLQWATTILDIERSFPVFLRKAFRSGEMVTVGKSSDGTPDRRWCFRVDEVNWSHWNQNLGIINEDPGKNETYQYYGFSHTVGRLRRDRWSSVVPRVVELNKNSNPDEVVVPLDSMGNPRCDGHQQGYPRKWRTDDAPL

SMILES | EC50 (TRPV4 channel receptor) [µM] | EC50 (TRPV4 channel receptors) [µM]
CC(C)C[C@H](NC(=O)c1cn2nc(Cl)ccc2n1)C(=O)NCCCN(C)S(=O)(=O)c1ccccc1C#N [Example 71, 6-chloro-N-{(1S)-1-[({3-[[(2-cyanophenyl)sulfonyl](methyl)amino]propyl}amino)carbonyl]-3-methylbutyl}imidazo[1,2-b]pyridazine-2-carboxamide] | 10 to 20 | 
CC(C)C[C@H](NC(=O)c1cc2ccccc2s1)C(=O)NCCCN(C)S(=O)(=O)c1ccc(F)cc1Cl [Example 6, N-{(1S)-1-[({3-[[(2-chloro-4-fluorophenyl)sulfonyl](methyl)amino]propyl}amino)carbonyl]-3-methylbutyl}-1-benzothiophene-2-carboxamide] | 0.1 to 0.794 | 0.14 to 1
CC(C)C[C@H](NC(=O)c1cc2ccccc2s1)C(=O)NCCCN(C)S(=O)(=O)c1sccc1C#N [Example 13, N-{(1S)-1-[({3-[[(3-cyano-2-thienyl)sulfonyl](methyl)amino]propyl}amino)carbonyl]-3-methylbutyl}-1-benzothiophene-2-carboxamide] |  | 1.01 to 10
Cc1c(C(=O)N[C@@H](CC(C)C)C(=O)NCCCN(C)S(=O)(=O)c2ccccc2C#N)oc2cccnc12 [Example 73, N-{(1S)-1-[({3-[[(2-cyanophenyl)sulfonyl](methyl)amino]propyl}amino)carbonyl]-3-methylbutyl}-3-methylfuro[3,2-b]pyridine-2-carboxamide] |  | 10 to 30
CC(C)C[C@H](NC(=O)c1cc2ccccc2s1)C(=O)NCCCN(C)S(=O)(=O)c1c(Cl)cc(Cl)cc1Cl [Example 17, N-((1S)-3-methyl-1-{[(3-{methyl[(2,4,6-trichlorophenyl)sulfonyl]amino}propyl)amino]carbonyl}butyl)-1-benzothiophene-2-carboxamide] | 1 to 7.94 | 
